Experimental data reported in patent publication US12241102B2, “Method for synthesizing betalain pigment” (priority 2018, dated 2025).

What was measured:
HIV-1 protease [1] = target: T1, HIV-1 protease (Human immunodeficiency virus type 1 group M subtype B, UniProt P04585); assay: Evaluation of HIV-1 protease inhibitory activity (residual substrate peptide by HPLC); type: biochemical; set-up: A recombinant HIV-1 protease (ab84117) from Abcam was used as an HIV-1 protease; purchased Abcam ab84117; conditions: 25° C., 2 hours, pH 4.7
Text: FIG. 15 show the results of evaluation of inhibition of an HIV-1 protease. FIG. 15A includes HPLC chromatograms of HIV-1 protease reaction mixtures. Dashed and solid arrows indicate an HIV-1 protease substrate and its degradation product, respectively. (+) and (−)HIV-1 protease indicate reaction mixtures with and without the HIV-1 protease, respectively. (−)Betalain indicates a reaction mixture without betalain pigments. The horizontal axis indicates the retention time (min), and the vertical axis indicates the signal intensity (μV). […] Gray and black bars indicate reaction mixtures containing betanin and amaranthin, respectively. The white bar indicates the reaction mixture without betalain pigments as a negative control. Bars represent the mean±SE (n=3). Symbol “*” represents p<0.05 as compared to the reaction mixture without betalain pigments. 0, 10, 50, and 100 indicate 0-, 10-, 50-, and 100-fold amounts of betalain as compared to the HIV-1 protease. […]
After the reaction, the reaction liquid was measured for the amount of the residual substrate peptide through use of HPLC, and a residual ratio with respect to the substrate before the reaction was calculated. […] Analysis was performed with an analytical wavelength being set to 260 nm allowing the HIV-1 protease substrate peptide to be detected.

[2] = tested on: Human breast cancer cells (MCF-7); assay: Influence of betalain pigment on human breast cancer cells (AlamarBlue assay); type: cell-based; conditions: MCF-7 cells, concentration of 50 μM, cultured for 72 hours, p<0.05 vs untreated cells
Method: FIG. 14 show the results of evaluation of cell proliferation in MCF-7 cells. FIG. […] Cell proliferation was determined using an AlamarBlue assay according to the manufacturer's instructions. Bars represent the mean±SE (n=5). Symbol “*” represents p<0.05 as compared to untreated cells. […] Cells were examined under an inverted microscope. Bars represent 100 μm.
Human breast cancer cells (MCF-7) were received from the RIKEN BioResource Center. For the culture of the cells, Dulbecco's modified Eagle's medium-high glucose (4.5 g L^−1 glucose; DMEM-HG) supplemented with 10% FBS and antibiotics (100 U mL^−1 penicillin and 100 μg mL^−1 streptomycin) was used. The cells were cultured under the culture conditions of 37° C., a humidity of 100%, and a 5% CO2/95% air atmosphere. For the culture, the breast cancer cells were added at 5,000 cells per well on 96-well plates, and at the same time, amaranthin or betanin was added at different concentrations, and the cells were cultured for 72 hours. After that, the activity of the breast cancer cells was evaluated by an AlamarBlue assay (alamarBlue Cell Viability Reagent, Thermo Fisher Scientific). The procedure followed the accompanying instructions.

HIV-1 protease [3] = target: T1, HIV-1 protease; conditions: literature virtual screening, not tested experimentally there; cited from earlier work

Structure (SMILES): O=C(O)C1=C/C(=C/C=[N+]2/c3cc(O)c(OC4OC(CO)[C@@H](O)C(O)C4O)cc3CC2C(=O)[O-])CC(C(=O)O)N1 (stereo in doubt) [betanin, reference compound]
- inhibitory activity on the HIV-1 protease (HIV-1 protease [1]; 10-, 50- and 100-fold amounts with respect to the HIV-1 protease): not found to have inhibitory activity
- cancer cell activity of the breast cancer cells [2]: significantly suppressed

Structure (SMILES): O=C(O)C1=C/C(=C/C=[N+]2c3cc(O)c(O[C@@H]4O[C@H](CO)[C@@H](O)[C@H](O)[C@H]4O[C@@H]4O[C@H](C(=O)O)[C@@H](O)[C@H](O)[C@H]4O)cc3C[C@H]2C(=O)[O-])C[C@@H](C(=O)O)N1 [amaranthin]
- activity of the HIV-1 protease (HIV-1 protease [1]; 100-fold amount with respect to the HIV-1 protease (16 pmol)): significantly inhibited
- cancer cell activity of the breast cancer cells [2]: significantly suppressed
- virtual screening prediction as HIV-1 protease inhibitor (HIV-1 protease [3]): candidate of a novel HIV-1 protease inhibitor
